Assay [1] relates to OVCAR-3 cells. Description: Cell Titer-Glo anti-proliferation, OVCAR-3 cells. It counts as cell-based. Conditions: 3 days, read-out: Anti-proliferative activity OVCAR-3 (IC50 class). Here is the method:
(§1) A. Evaluation of the Anti-Proliferative Effect of Compounds on BxPC3, HT-29 and OVCAR-3 Cells by the Cell Titer-Glo Method
(§2) Compound solutions of different concentration gradients were prepared. […] The cell growth group without compound was used as a positive control (maximum signal control) and the medium was used as a negative control (minimum signal control), while ensuring that the final level of DMSO in each reaction well was 0.2%. After removing the medium from the 384-well plate, 25 μl of the configured compound at different concentrations was transferred into the well plate and the compound and cells were incubated in the cell incubator at 37° C. with 5% CO2 for 3 days.
(§3) The 384-well plates were removed from the cell incubator and allowed to equilibrate for 1 h to room temperature. 25 μl of Cell Titer-Glo assay was added to each well, lysed on a shaker for 2 min and then read out (Luminescence) using a BMG PHERAStar after 10 min incubation. Calculate the inhibition rate from the luminescence signal.
(§4) to calculate the rate of inhibition of the cells by different concentrations of the compounds. The IC50 of the compound on cell activity inhibition was calculated by fitting a log(inhibitor) vs. response-Variable slope model to GraphPad Prism 6. The fitted equation was: Y=Bottom+(Top-Bottom)/(1+10^((Log IC50−X)*HillSlope)), where Y represents the rate of inhibition and X represents the concentration of the known compound after Log.

Assay [2] has as its system HT-29 cells. The experiment in a line: Cell Titer-Glo anti-proliferation, HT-29 cells. To be noted: 3 days, read-out: Anti-proliferative activity HT-29 (IC50 class). It counts as cell-based, human. The protocol: as §1, §2, §3, §4
Background: In ATP-based viability assays light output follows the ATP content of the culture.

Assay [3] has as its system BxPC3 cells. The experiment in a line: Cell Titer-Glo anti-proliferation, BxPC3 cells. It counts as cell-based, human. To be noted: 3 days, read-out: Anti-proliferative activity BxPC3 (IC50 class). The protocol:
as §1, §2, §3, §4

As usually defined, the IC50 is the concentration that inhibits the measured activity by half.

A value given as a limit tells only on which side of the number the result lay.

Consider `C=CCn1c(=O)c2cnc(Nc3ccc(N4CC5CC(C4)N5CCF)cc3)nc2n1-c1ccc2c(n1)C(C)(O)C1(CC2)CC1` (centres unmarked) [Compound 59b], for which the half-inhibitory concentration (IC50) in assay [1] lay within 1000 to 2000 nM; in assay [2], 100 to 1000 nM; in assay [3] it was 1000 to 2000 nM.
Regarding `C=CCn1c(=O)c2cnc(Nc3ccc(N4CCC5(CCN(C)CC5)CC4)cc3)nc2n1-c1ccc2c(n1)[C@](O)(CC)C1(CC2)CC1` (single isomer, unassigned) [Compound 69a], the IC50 lay in the range of 100 to 1000 nM in assay [1], 100 to 1000 nM in assay [2] and 1000 to 2000 nM in assay [3].
In the case of `C=CCn1c(=O)c2cnc(Nc3ccc(N4CCN(C(C)C)CC4)cc3)nc2n1-c1ccc2c(n1)C(O)C1(CC2)CC1` (single isomer, unassigned) [Compound 57a], the IC50 in assay [1] is 2000 to 5000 nM; in assay [2] it was 1000 to 2000 nM; in assay [3], 2000 to 5000 nM.
Turning to `C=CCn1c(=O)c2cnc(Nc3ccc(N4CC5CC(C4)N5C)cc3)nc2n1-c1ccc2c(n1)[C@](O)(CC)C1(CC2)CC1` (single isomer, unassigned) [Compound 64a], the IC50 in assay [1], in assay [2] and in assay [3] was 100 to 1000 nM throughout.
Take `C=CCn1c(=O)c2cnc(Nc3ccc(N4CCC5(CCN(C)CC5)CC4)cc3)nc2n1-c1ccc2c(n1)[C@@H](O)C1(CC2)CC1` [Compound 38a]: the IC50 lay in the range of 1000 to 2000 nM in assay [1], 100 to 1000 nM in assay [2] and 1000 to 2000 nM in assay [3].
With `C=CCn1c(=O)c2cnc(Nc3ccc(N4CCN(C)[C@H](C)C4)cc3)nc2n1-c1ccc2c(n1)C(O)(CC)C1(CC1)C2` (some centres unmarked) [Compound 40], the half-maximal inhibitory concentration (IC50) fell in the range of 100 to 1000 nM in assay [1], 100 to 1000 nM in assay [2] and 1000 to 2000 nM in assay [3].
Regarding `C=CCn1c(=O)c2cnc(Nc3ccc(N4CCN(C)CC4)cc3)nc2n1-c1ccc2c(n1)C(O)(CC)C1(CC1)C2` (racemic) [Compound 18], the IC50 in assay [1] lay within 2000 to 5000 nM; in assay [2], 100 to 1000 nM; in assay [3], 2000 to 5000 nM.
Turning to `C=CCn1c(=O)c2cnc(Nc3ccc(N4CCC5(CCN(C)CC5)CC4)c(C)c3)nc2n1-c1ccc2c(n1)C(O)C1(CC2)CC1` (single isomer, unassigned) [Compound 61a], the IC50 in assay [1], in assay [2] and in assay [3] was 100 to 1000 nM throughout.
For `C=CCn1c(=O)c2cnc(Nc3ccc(N4CCC(N(C)C)CC4)cc3)nc2n1-c1ccc2c(n1)C(C)(O)C1(CC1)C2` (racemic) [Compound 12], the half-maximal inhibitory concentration (IC50) lay in the range of 100 to 1000 nM in assay [1], 100 to 1000 nM in assay [2] and 2000 to 5000 nM in assay [3].
As for `C=CCn1c(=O)c2cnc(Nc3ccc(N4CCC(N(C)C)CC4)cc3)nc2n1-c1ccc2c(n1)C(C)(O)C1(CC2)CC1` (centres unmarked) [Compound 65b], the half-maximal inhibitory concentration (IC50) in assay [1], in assay [2] and in assay [3] was 100 to 1000 nM throughout.
For the compound `C=CCn1c(=O)c2cnc(Nc3ccc(N4C[C@H]5C[C@@H]4CN5C)cc3)nc2n1-c1ccc2c(n1)C(O)(CC)C1(CC1)C2` (some centres unmarked) [Compound 26], the IC50 was in the range of 2000 to 5000 nM in assay [1], 1000 to 2000 nM in assay [2] and 2000 to 5000 nM in assay [3].
Consider `C=CCn1c(=O)c2cnc(Nc3ccc(N4C[C@@H](C)O[C@@H](C)C4)cc3)nc2n1-c1ccc2c(n1)[C@](O)(CC)C1(CC1)C2` (single isomer, unassigned) [Compound 31a], for which the values for the IC50 in assay [1], in assay [2] and in assay [3] were 5000 to 10000 nM, 2000 to 5000 nM and 5000 to 10000 nM, respectively.
Consider `C=CCn1c(=O)c2cnc(Nc3ccc(N4C[C@@H]5C[C@H]4CN5C)cc3)nc2n1-c1ccc2c(n1)[C@](C)(O)C1(CC2)CC1` (single isomer, unassigned) [Compound 45b], for which the IC50 in assay [1], in assay [2] and in assay [3] was 1000 to 2000 nM each time.
Regarding `C=CCn1c(=O)c2cnc(Nc3ccc(N4CC5CN(C)CC5C4)cc3)nc2n1-c1ccc2c(n1)C(C)(O)C1(CC2)CC1` (single isomer, unassigned) [Compound 43a], the IC50 in assay [1], in assay [2] and in assay [3] was 100 to 1000 nM each time.
Turning to `C=CCn1c(=O)c2cnc(Nc3ccc(N4CC5CC(C4)N5C)cc3)nc2n1-c1ccc2c(n1)C(O)C1(CC2)CC1` (single isomer, unassigned) [Compound 34a], the figures for the IC50 in assay [1] and in assay [2] were 2000 to 5000 nM and 100 to 1000 nM, respectively.
With `C=CCn1c(=O)c2cnc(Nc3ccc(N4CCC5(CCN(C)CC5)CC4)c(F)c3)nc2n1-c1ccc2c(n1)C(O)C1(CC2)CC1` (centres unmarked) [Compound 62b], the IC50 in assay [1], in assay [2] and in assay [3] was 100 to 1000 nM throughout.
For the compound `C=CCn1c(=O)c2cnc(Nc3ccc(N4CCC(N(C)C)CC4)c(C)c3)nc2n1-c1ccc2c(n1)[C@](C)(O)C1(CC1)C2` (single isomer, unassigned) [Compound 42a], the IC50 in assay [1], in assay [2] and in assay [3] was 100 to 1000 nM throughout.
Take `C=CCn1c(=O)c2cnc(Nc3ccc(N4C[C@H]5CN(C)C[C@H]5C4)cc3)nc2n1-c1ccc2c(n1)C(C)(O)C1(CC2)CC1` (mixture of isomers) [Compound 43]: the IC50 in assay [1], in assay [2] and in assay [3] was 100 to 1000 nM throughout.
On to `C=CCn1c(=O)c2cnc(Nc3ccc(N4C[C@@H](C)O[C@@H](C)C4)cc3)nc2n1-c1ccc2c(n1)[C@@](O)(CC)C1(CC1)C2` (single isomer, unassigned) [Compound 31b], for which the concentration for half-maximal inhibition (IC50) was in the range of 1000 to 2000 nM in assay [1], 2000 to 5000 nM in assay [2] and 2000 to 5000 nM in assay [3].
As for `C=CCn1c(=O)c2cnc(Nc3ccc(N4CCC(N(C)C)[C@H](F)C4)cc3)nc2n1-c1ccc2c(n1)C(C)(O)C1(CC2)CC1` (some centres unmarked) [Compound 60a], the concentration for half-maximal inhibition (IC50) in assay [1], in assay [2] and in assay [3] was 100 to 1000 nM throughout.
Take `C=CCn1c(=O)c2cnc(Nc3ccc(N4CCC(N(C)C)C(F)C4)cc3)nc2n1-c1ccc2c(n1)C(C)(O)C1(CC1)C2` (single isomer, unassigned) [Compound 20a]: the IC50 in assay [1], in assay [2] and in assay [3] was 1000 to 2000 nM throughout.
With `C=CCn1c(=O)c2cnc(Nc3ccc(N4CC5CC(C4)N5C(C)C)cc3)nc2n1-c1ccc2c(n1)[C@](O)(CC)C1(CC2)CC1` (single isomer, unassigned) [Compound 36b], the half-inhibitory concentration (IC50) in assay [1], in assay [2] and in assay [3] was 100 to 1000 nM in each case.
`C=CCn1c(=O)c2cnc(Nc3ccc(N4CCC(N(C)C)CC4)cc3)nc2n1-c1ccc2c(n1)C(O)C1(CC2)CC1` (single isomer, unassigned) [Compound 66a]: the half-maximal inhibitory concentration (IC50) in assay [1] is 2000 to 5000 nM; in assay [2], 1000 to 2000 nM; in assay [3] it was 2000 to 5000 nM.
As for `C=CCn1c(=O)c2cnc(Nc3ccc(N4CC5CC(C4)N5CCF)cc3)nc2n1-c1ccc2c(n1)[C@](C)(O)C1(CC2)CC1` (single isomer, unassigned) [Compound 59a], the IC50 in assay [1], in assay [2] and in assay [3] was 100 to 1000 nM in each case.
Regarding `C=CCn1c(=O)c2cnc(Nc3ccc(N4CC5CC(C4)N5C)cc3)nc2n1-c1ccc2c(n1)C(O)C1(CC2)CC1` (racemic) [Compound 34], the IC50 lay within 1000 to 2000 nM in assay [1], 100 to 1000 nM in assay [2] and 1000 to 2000 nM in assay [3].
For the compound `C=CCn1c(=O)c2cnc(Nc3ccc(N4CCC5(CCN(C)CC5)CC4)c(F)c3)nc2n1-c1ccc2c(n1)C(O)C1(CC2)CC1` (single isomer, unassigned) [Compound 62a], the IC50 in assay [1] was in the range of 1000 to 2000 nM; in assay [2], 100 to 1000 nM; in assay [3], 1000 to 2000 nM.
`C=CCn1c(=O)c2cnc(Nc3ccc(N4CCN(C)[C@H](C)C4)cc3)nc2n1-c1ccc2c(n1)[C@@H](O)C1(CC2)CC1` (single isomer, unassigned) [Compound 68a]: the half-maximal inhibitory concentration (IC50) in assay [1] lay within 2000 to 5000 nM; in assay [2], 1000 to 2000 nM; in assay [3], 2000 to 5000 nM.
As for `C=CCn1c(=O)c2cnc(Nc3ccc(N4CC5CC(C4)N5C)cc3)nc2n1-c1ccc2c(n1)[C@@](O)(CC)C1(CC2)CC1` (single isomer, unassigned) [Compound 64b], the IC50 in assay [1], in assay [2] and in assay [3] was 100 to 1000 nM each time.
For `C=CCn1c(=O)c2cnc(Nc3ccc(N4CCC5(CC4)CN(C)C5)cc3)nc2n1-c1ccc2c(n1)C(C)(O)C1(CC2)CC1` (racemic) [Compound 47], the half-maximal inhibitory concentration (IC50) in assay [1], in assay [2] and in assay [3] was more than 10000 nM throughout.
On to `C=CCn1c(=O)c2cnc(Nc3ccc(N4CCN(C)CC4)cc3)nc2n1-c1ccc2c(n1)C(C)(O)C1(CC2)CC1` (single isomer, unassigned) [Compound 6b], for which the IC50 in assay [2] lay within 100 to 1000 nM; in assay [3], 1000 to 2000 nM.
As for `C=CCn1c(=O)c2cnc(Nc3ccc(N4CCC5(CCN(C)CC5)CC4)cc3)nc2n1-c1ccc2c(n1)[C@](C)(O)C1(CC2)CC1` [Compound 44b], in assay [3], the IC50 fell in the range of 100 to 1000 nM.
On to `C=CCn1c(=O)c2cnc(Nc3ccc(N4CCN(C)CC4)cc3)nc2n1-c1ccc2c(n1)N(CC)CC21CCC1` [Compound 16], for which the half-inhibitory concentration (IC50) in assay [2] was in the range of 100 to 1000 nM; in assay [3] it was 1000 to 2000 nM.
For the compound `C=CCn1c(=O)c2cnc(Nc3ccc(N4CC5CC(C4)N5CC)cc3)nc2n1-c1ccc2c(n1)[C@](C)(O)C1(CC2)CC1` [Compound 51b], the IC50 in assay [3] was 100 to 1000 nM.

For the origin of these results see patent US20250304587A1, “WEE1 INHIBITOR, PREPARATION THEREFOR AND USE THEREOF” (JIANGSU TASLY DIYI PHARMACEUTICAL CO., LTD., priority 2022, published 2025).
